Measurements taken from patent US20250213561A1, “SELECTIVE HYPOTHALAMUS PERMEABLE HDAC6 INHIBITORS FOR TREATMENT OF LEPTIN-RESISTANT OBESITY” (The Children’s Medical Center Corporation, priority 2022, published 2025).
“Also recorded” adds a separate entry of the source.

Experiments:
DIO mice [1] = assay: Chronic treatment of DIO mice (body weight, food intake, DEXA, glucose homeostasis); format: in vivo; conditions: for body weight: 3 weeks i.p., ricolinostat 50 mg/kg, bavarostat 10 mg/kg, citarinostat 25 mg/kg; for food intake: 3 weeks treatment
Protocol: DIO mice were treated with ACY775 (10 mg/kg/day, i.p.) for 3 weeks. Daily body weight (g) of DIO mice treated with vehicle (n=17) or ACY775 (n=17) during 3 weeks of treatment was determined. Daily food intake (g) during 3 weeks of vehicle or ACY775 treatment was assessed. 24 hours' food intake per mouse during the first week of vehicle or ACY775 treatment was determined. Serum leptin (ng/ml) levels after 3 weeks of vehicle (n=24) or ACY775 (n=24) treatment was assessed. Lean mass (g), fat mass (g) and fat percentage (%) after 3 weeks of vehicle (n=17) or ACY775 (n=17) treatment measured by Dual-energy X-ray absorptiometry (DEXA) scan. DEXA scans were performed in two different cohorts. Glucose tolerance test (GTT) after 1 week of vehicle (n=33) or ACY775 (n=26) treated DIO mice was assessed. Area of curve (AOC) analysis for GTT was performed. Blood glucose (mg/dl) levels after 1 week of vehicle (n=17) or ACY775 (n=16) were assessed in treated DIO mice. Insulin tolerance test (ITT) was performed after 2 weeks of vehicle (n=31) or ACY775 (n=21) treatment of DIO mice. Serum insulin (ng/ml) levels were measured after 3 weeks of vehicle (n=22) or ACY775 (n=21) in treated DIO mice. A homeostatic model assessment of insulin resistance (HOMA-IR) was analyzed after 3 weeks of vehicle (n=14) or ACY775 (n=13) treated DIO mice.
Food intake was analyzed hourly until 3:00 am. […] DEXA scans were performed in two different cohorts.
DIO mice then were treated with ricolinostat (50 mg/kg, i.p.) for 3 weeks. Daily body weight (g), daily food intake (g), serum leptin (ng/ml) levels after 3 weeks of vehicle (n-8) or ricolinostat (n=8) treatment, lean mass (g); fat mass and fat percentage (%) after 3 weeks of vehicle (n=16) or ricolinostat (n=17) treatment measured by DEXA scan were determined.
Blood glucose (mg/dl) levels were measured after 1 week of vehicle (n=16) or ricolinostat (n=16) treated DIO mice. GTT after 1 week of vehicle (n=17) or ricolinostat (n=16) treatment of DIO mice was assessed. AOC analysis for GTT was performed. ITT after 2 weeks of vehicle (n=17) or ricolinostat (n=16) treated DIO mice was measured. Serum insulin (ng/ml) levels after 3 weeks of vehicle (n=8) or ricolinostat (n=8) treatment were measured in DIO mice. Liver sections from 3 weeks of vehicle or ricolinostat treated DIO mice were stained by H&E.
DIO mice then were treated with bavarostat (10 mg/kg, i.p.) for 3 weeks and daily body weight (g) of DIO mice treated with Veh (n=9) or bavarostat (n=9) measured during the three weeks of treatment period. Daily food intake (g) during 3 weeks of Veh or bavarostat treatment was also measured.
ACY1083 was administered to DIO mice as described in Example 3.

HDAC6 [2] = target: HDAC6 (Mus musculus (Mouse), UniProt Q9Z2V5); assay: Ac-tubulin immunoblotting of tissues (HDAC6 inhibition in hypothalamus and brain regions); format: in vivo, mice; conditions: for HDAC6 inhibition in other brain regions: cerebrum, frontal lobe, temporal lobe, brainstem; for HDAC6 inhibition in the hypothalamus: mouse, in vivo
HDAC6 (Mus musculus (Mouse), UniProt Q9Z2V5), sequence (Q9Z2V5 whole entry): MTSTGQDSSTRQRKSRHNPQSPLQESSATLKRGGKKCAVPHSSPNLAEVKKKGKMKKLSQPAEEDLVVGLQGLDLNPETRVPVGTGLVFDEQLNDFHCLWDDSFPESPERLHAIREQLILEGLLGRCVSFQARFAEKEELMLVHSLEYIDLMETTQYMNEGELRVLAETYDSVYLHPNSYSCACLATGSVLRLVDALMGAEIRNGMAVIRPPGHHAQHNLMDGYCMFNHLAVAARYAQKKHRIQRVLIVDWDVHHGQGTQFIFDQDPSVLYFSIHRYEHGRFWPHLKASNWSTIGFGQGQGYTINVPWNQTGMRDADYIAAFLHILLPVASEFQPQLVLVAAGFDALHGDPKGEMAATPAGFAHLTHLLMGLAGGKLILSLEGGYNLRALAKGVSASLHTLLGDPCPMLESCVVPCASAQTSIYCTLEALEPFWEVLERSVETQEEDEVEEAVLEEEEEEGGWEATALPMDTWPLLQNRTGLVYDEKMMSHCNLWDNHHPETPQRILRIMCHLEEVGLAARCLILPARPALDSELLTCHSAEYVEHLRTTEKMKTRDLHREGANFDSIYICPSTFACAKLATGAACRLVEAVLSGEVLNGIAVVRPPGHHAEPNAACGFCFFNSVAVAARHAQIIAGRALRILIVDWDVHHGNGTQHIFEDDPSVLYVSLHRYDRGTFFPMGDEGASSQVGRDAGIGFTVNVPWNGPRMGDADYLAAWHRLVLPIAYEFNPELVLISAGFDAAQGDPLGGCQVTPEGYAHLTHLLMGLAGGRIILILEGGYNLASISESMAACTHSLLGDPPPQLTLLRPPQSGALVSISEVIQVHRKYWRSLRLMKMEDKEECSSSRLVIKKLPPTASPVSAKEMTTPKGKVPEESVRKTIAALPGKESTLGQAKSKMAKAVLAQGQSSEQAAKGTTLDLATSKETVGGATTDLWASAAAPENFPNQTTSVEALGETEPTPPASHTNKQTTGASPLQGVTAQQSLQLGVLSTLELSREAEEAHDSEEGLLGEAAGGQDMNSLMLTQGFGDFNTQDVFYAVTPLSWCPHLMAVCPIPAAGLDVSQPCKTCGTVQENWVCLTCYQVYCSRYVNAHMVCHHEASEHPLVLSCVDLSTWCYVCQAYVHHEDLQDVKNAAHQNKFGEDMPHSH

[3] = tested on: ACY775-responsive DMH neurons; assay: Chemogenetic (hM3Dq) activation of ACY775-responsive DMH neurons; format: in vivo; conditions: ACY775-induced hM3Dq TRAP2 DIO mice
Protocol: Next, the ACY775-responsive DMH neurons were chemogenically activated to investigate whether activation of these neurons would be sufficient to reduce the food intake and the bodyweight. Adeno-associated virus (AAV) carrying Cre-dependent hM3Dq-DREADD fused to mCherry transgene (AAV-DIO-hM3Dq-mCherry) was injected bilaterally into the DMH of TRAP2 DIO mice. Four weeks after injections, a single dose of ACY775 (10 mg/kg, i.p.) or vehicle was injected to induce c-fos expression. Subsequently, 4-OHT injection was performed after 5 h to activate c-fos driven Cre in the fasted DIO mice. The mCherry signal was expressed only in ACY775-treated TRAP2 DIO mice and was absent in vehicle-treated TRAP2 DIO mice.
Next, both AAV-DIO-hM3Dq-mCherry- and ACY775-injected, and vehicle-treated TRAP2 DIO mice with saline were treated for 3 days and with clozapine N-oxide (CNO) for 4 days. […] The blood glucose levels at the end of saline and CNO treatment was also measured. […] Blood glucose lowering effect of CNO was absent compared in Veh-induced TRAP2 DIO mice and in all the saline-treated mice.

[4] = Brain/plasma ratio and brain or hypothalamus penetration; conditions: in vivo
HDAC6-KO DIO mice = assay: Chronic treatment of DIO WT versus HDAC6 KO mice; format: in vivo; conditions: DIO mice, 3 weeks; ACY775 10, ACY738 50, Tubastatin A 25 mg/kg/day i.p.
[5] = in vivo; cited from earlier work
HDAC6 [6] = assay: Ac-tubulin immunoblotting in HEK293 cells; format: cell-based
DIO mice [7] = assay: Acute leptin co-treatment in DIO mice (body weight, food intake 15 h); format: in vivo; conditions: for body weight, agent alone: ACY775 10 mg/kg, ricolinostat 25 mg/kg
Protocol: DIO mice were pretreated with ACY775 (10 mg/kg/day, i.p.) or vehicle for 3 days, which was followed by co-treatment with ACY775 (or vehicle) and leptin (1 mg/kg, i.p.) (or saline) (n=9 for each group), % change in body weight 15 h after leptin treatment, food intake (g) during the 15 h period after leptin treatment. The results in were reproduced in two independent experiments.
Diet induced obese (DIO) mice were pretreated with ACY775 (10 mg/kg/day, i.p.) or vehicle for 3 days, which was followed by co-treatment with ACY775 (or vehicle) and leptin (1 mg/kg, i.p.) (or saline) (n=9 for each group). Mice were evaluated for % change in body weight 15 h after leptin treatment, and food intake (g) during the 15 h period after leptin treatment.
DIO mice were pretreated with ricolinostat (25 mg/kg/day, i.p.) or vehicle for 3 days, which was followed by co-treatment with ricolinostat (or vehicle) and leptin (1 mg/kg, i.p.) (or saline) (n=32 for each group). Change in body weight 15 h after leptin treatment, and food intake (g) during the 15 h period after leptin treatment were determined. The results were reproduced in two independent experiments.

p-STAT3^Tyr705 = assay: Leptin-stimulated hypothalamic STAT3 Tyr705 phosphorylation in DIO mice; format: in vivo; conditions: 45 minutes after leptin 1 mg/kg i.p.
Protocol: DIO mice were pretreated with ACY775 (10 mg/kg/day, i.p.) or vehicle for 3 days, which was followed by a last injection of ACY775 (or vehicle) in the morning of fourth day. 6 hours later mice were injected with saline or leptin (1 mg/kg, i.p.) and hypothalamus were extracted after 45 minutes following the leptin injection. Representative immunoblots for STAT3^Tyr705 phosphorylation and total STAT3 from the hypothalamus. Quantification of the ratio of p-STAT3^Tyr705 to total-STAT3 signal in the immunoblots. The results were reproduced in three independent experiments. The results were analyzed hourly.
DIO mice were pretreated with ACY775 (10 mg/kg/day, i.p.) or vehicle for 3 days, which was followed by a last injection of ACY775 (or vehicle) in the morning of fourth day. 6 hours later mice were injected with saline or leptin (1 mg/kg, i.p.) and the hypothalamus were extracted after 45 minutes following the leptin injection.
6 hours later mice were injected with saline or leptin (1 mg/kg, i.p.) and hypothalamus were extracted after 45 minutes following the leptin injection. Immunoblots for STAT3^Tyr705 phosphorylation and total STAT3 from the hypothalamus were made to quantify the ratio of p-STAT3^Tyr705 to total-STAT3 signal in the immunoblots. The results were reproduced in two independent experiments.
DIO mice were pretreated with ricolinostat (50 mg/kg/day, i.p.) or vehicle 3 days, which was followed by a last injection of ricolinostat (or vehicle) in the morning of fourth day. 6 hours later mice were injected with saline or leptin (1 mg/kg, i.p.) and the hypothalamus were extracted after 45 minutes following the leptin injection. Immunoblots were performed for STAT3^Tyr705 phosphorylation and total STAT3 from the hypothalamus. The ratio of p-STAT3^Tyr705 to total STAT3 signal in the immunoblots was quantified.

Row | Compound | body weight (DIO mice [1]; DIO mice) | HDAC6 inhibition in other brain regions (HDAC6 [2]) | penetrance into the hypothalamus [4] | food intake (DIO mice [1]; DIO mice) | brain penetrance / BBB permeability [5] | body weight, agent alone (DIO mice [7]; 15 h, leptin 1 mg/kg i.p.) | food intake, agent alone (DIO mice [7]; 15 h period) | leptin-stimulated hypothalamic p-STAT3^Tyr705 (p-STAT3^Tyr705) | other results
1 | CC1CCC(C(C)(C2CCC(C)CC2)C2CCC(C(C)C(C)CCCCC(C)C(C)C)CC2)CC1 (stereo not drawn) [ACY257] | as effective as ACY775 in reducing body weight | does not inhibit HDAC6 in other brain regions | – | – | – | – | – | – | –
2 | C[N+]1([O-])CCN(C2=Nc3cc(Cl)ccc3Nc3ccccc32)CC1 [CNO, clozapine N-oxide] | – | – | – | – | – | – | – | – | blood glucose levels [3]: significantly decreased blood glucose levels; bodyweight and food intake ([3]; CNO 4 days): significant reduction in bodyweight and food intake
3 | CN(Cc1ccc(C(=O)NO)cc1F)CC12CC3CC(CC(C3)C1)C2 [bavarostat, 4-(((((3r,5r,7r)-adamantan-1-yl)methyl)(methyl)amino)methyl)-3-fluoro-N-hydroxybenzamide] | statistically significantly effective in reducing food intake and body weight | – | high penetrance of the hypothalamus | Appetite was initially suppressed but then rose over time | high brain penetrance | – | – | – | food intake and total body fat mass (summary) (DIO mice [1]; high fat diet induced mice): significant reduction of food intake and total body fat mass; body weight, WT versus HDAC6 KO (HDAC6-KO DIO mice): treatment of wild type mice but not HDAC6 Knockout animals with bavarostat caused weight loss; also recorded: equivalent to vehicle in HDAC-6 KO mice
4 | O=C(CCCCCCNC(=O)c1cnc(N(c2ccccc2)c2ccccc2Cl)nc1)NO [citarinostat] | not effective in reducing body weight | inhibits HDAC6 in other brain regions | – | – | good brain penetrance | – | – | – | HDAC6 inhibition in the hypothalamus (HDAC6 [2]): does not show HDAC6 inhibition in the AGP neurons in the hypothalamus; HDAC6 inhibition in the hypothalamus (HDAC6 [2]; listed as Citarinostat): but not in the hypothalamus
5 | O=C(CCCCCCNC(=O)c1cnc(N(c2ccccc2)c2ccccc2)nc1)NO [ricolinostat] | minimal decrease in bodyweight for the first couple of days without creating any meaningful or significant decreases; also recorded: does not reduce body weight | – | neither of which have high penetrance into the hypothalamus | reduced transitionally during the first 2-3 days of treatment but then rebounded | poor BBB permeability | did not decrease the bodyweight | had no effect on the food intake | did not significantly increase STAT3^Tyr705 phosphorylation | tubulin acetylation (HDAC6 inhibitor activity in cells) (HDAC6 [6]): confirmation of Ricolinstat's HDAC6 inhibitory activity; body weight, leptin after pre-treatment with inhibitor (DIO mice [7]; 3 days pre-treatment, leptin 1 mg/kg i.p., 15 h): did not reduce the body weight; food intake, leptin together with inhibitor (DIO mice [7]; leptin 1 mg/kg i.p., 15 h period): had no effect on the food intake; insulin tolerance test (ITT) (DIO mice [1]; DIO mice): did not improves; hepatic steatosis (H&E liver) (DIO mice [1]; DIO mice, 3 weeks): no decrease in the hepatic steatosis; glucose tolerance test (GTT) (DIO mice [1]; DIO mice, after 1 week): did not improves glucose tolerance; serum insulin levels (DIO mice [1]; DIO mice, after 3 weeks): did not reduce insulin levels; brain/plasma ratio [5]: < 0.01
6 | leptin: peptide hormone that serves as the afferent signal in a negative feedback loop regulating food intake and body weight | – | – | – | – | – | did not significantly alter their bodyweight; also recorded: did not change their bodyweight | did not significantly change the food intake | did not significantly increase STAT3^Tyr705 phosphorylation | –
